Measured values as given in patent US20260053834A1, “COVALENT MODIFIERS OF AKT1 AND USES THEREOF” (Terremoto Biosciences, Inc., priority 2023, published 2026).

Assays:
AKT2 = molecular target: T1, AKT2 (Homo sapiens, UniProt P31751); test: Live cell target engagement by NanoBRET competitive probe displacement, AKT2; type: binding; conditions: transfected HEK293 cells, 2 h at 37° C., read-out: AKT2 IC50: GeoMean IC50
T1 construct: expressed in transfected cells; host or cells: HEK293

AKT1 E17K = molecular target: T2, AKT1 E17K (Homo sapiens, UniProt P31749, E17K); test: Live cell target engagement by NanoBRET competitive probe displacement, AKT1 E17K; type: binding; conditions: transfected HEK293 cells, 2 h at 37° C., read-out: AKT1 E17K IC50: GeoMean IC50
T2 construct: expressed in transfected cells; host or cells: HEK293

AKT1 WT = molecular target: T3, AKT1 WT (Homo sapiens, UniProt P31749); test: Live cell target engagement by NanoBRET competitive probe displacement, AKT1 WT; type: binding; conditions: transfected HEK293 cells, 2 h at 37° C., read-out: AKT1 WT IC50: GeoMean IC50
T3 construct: expressed in transfected cells; host or cells: HEK293

[1] = test system: LAPC4 prostate cancer cells, which express the AKT1 E17K allele; test: Antiproliferative effects in LAPC4 cells (CellTiter Glo, 72 h); type: cell-based; conditions: Homo sapiens, LAPC4, 72 h, read-out: LAPC4 proliferation IC50: GeoMean IC50
Procedure, shortened: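 Cells grown in IMDM with 12% FBS, seeded at 1,000 cells/well and treated with compound dilutions in DMSO for 72 h. Intracellular ATP read by luminescence. IC50 from a log(inhibitor) vs. response Hill fit.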

T3 sequence (P31749 whole entry): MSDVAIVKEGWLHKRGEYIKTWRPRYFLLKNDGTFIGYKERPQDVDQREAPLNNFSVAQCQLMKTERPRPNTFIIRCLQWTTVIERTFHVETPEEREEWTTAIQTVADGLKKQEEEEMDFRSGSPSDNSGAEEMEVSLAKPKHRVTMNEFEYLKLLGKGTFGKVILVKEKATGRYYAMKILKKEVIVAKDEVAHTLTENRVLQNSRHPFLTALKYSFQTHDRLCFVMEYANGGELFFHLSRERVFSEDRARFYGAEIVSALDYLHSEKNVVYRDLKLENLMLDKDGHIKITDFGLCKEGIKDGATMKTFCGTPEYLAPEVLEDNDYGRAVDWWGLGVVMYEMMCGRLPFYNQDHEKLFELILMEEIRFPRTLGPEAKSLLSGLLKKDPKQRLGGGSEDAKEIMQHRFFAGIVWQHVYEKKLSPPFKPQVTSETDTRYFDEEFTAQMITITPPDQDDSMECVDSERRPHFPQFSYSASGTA
T2 sequence (P31749 whole entry E17K): as the sequence (P31749 whole entry) above, with E17K counted along it
T1 sequence (P31751 whole entry): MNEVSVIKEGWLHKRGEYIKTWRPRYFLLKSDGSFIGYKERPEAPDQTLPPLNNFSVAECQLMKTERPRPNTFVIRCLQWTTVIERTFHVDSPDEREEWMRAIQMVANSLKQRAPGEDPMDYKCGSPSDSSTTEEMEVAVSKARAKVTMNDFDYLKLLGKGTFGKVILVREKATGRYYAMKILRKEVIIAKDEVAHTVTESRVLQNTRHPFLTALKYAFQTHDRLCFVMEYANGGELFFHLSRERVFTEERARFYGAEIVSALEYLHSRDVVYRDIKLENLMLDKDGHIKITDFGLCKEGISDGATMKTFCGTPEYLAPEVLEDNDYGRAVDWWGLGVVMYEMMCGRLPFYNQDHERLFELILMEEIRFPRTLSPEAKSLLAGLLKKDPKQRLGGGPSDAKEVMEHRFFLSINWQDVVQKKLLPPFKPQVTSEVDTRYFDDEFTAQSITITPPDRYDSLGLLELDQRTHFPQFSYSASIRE

Structure (SMILES)	IC50 (AKT2)	IC50 (AKT1 E17K)	IC50 (AKT1 WT)	IC50 [1]
Nc1ncccc1-c1nc2ccc(-c3cn[nH]c3)nc2n1-c1ccc2c(c1)CC[C@@H]2NC(=O)c1ccc(O)c(C=O)c1 [Example 67, N-[(1S)-5-[2-(2-aminopyridin-3-yl)-5-(1H-pyrazol-4-yl)imidazo[4,5-b]pyridin-3-yl]-2,3-dihydro-1H-inden-1-yl]-3-formyl-4-hydroxybenzamide]	100 to 2000 nM	100 to 2000 nM	100 to 2000 nM	100 to 2000 nM
Nc1ncccc1-c1nc2ccc(-c3ccccc3)nc2n1-c1ccc2c(c1)CC[C@@H]2NC(=O)c1ccc(NC(=O)N2CCOCC2)c(C=O)c1 [Example 68, N-(4-{[(1S)-5-[2-(2-aminopyridin-3-yl)-5-phenylimidazo[4,5-b]pyridin-3-yl]-2,3-dihydro-1H-inden-1-yl]carbamoyl}-2-formylphenyl)morpholine-4-carboxamide]	100 to 2000 nM	10 to 100 nM	10 to 100 nM	100 to 2000 nM
Cc1cc(C)c2nc(-c3cccnc3N)n(-c3ccc4c(c3)CC[C@@H]4NC(=O)c3ccc(O)c(C=O)c3)c2n1 [Example 69, N-[(1S)-5-[2-(2-aminopyridin-3-yl)-5,7-dimethylimidazo[4,5-b]pyridin-3-yl]-2,3-dihydro-1H-inden-1-yl]-3-formyl-4-hydroxybenzamide]	≥ 2000 nM	10 to 100 nM	100 to 2000 nM	100 to 2000 nM
Nc1ncccc1-c1nc2ccc(-c3cnccn3)nc2n1-c1ccc2c(c1)CC[C@@H]2NC(=O)c1cc(F)c(O)c(C=O)c1 [Example 70, (S)—N-(5-(2-(2-aminopyridin-3-yl)-5-(pyrazin-2-yl)-3H-imidazo[4,5-b]pyridin-3-yl)-2,3-dihydro-1H-inden-1-yl)-3-fluoro-5-formyl-4-hydroxybenzamide]	100 to 2000 nM	10 to 100 nM	10 to 100 nM	100 to 2000 nM
COc1cnc(-c2ccc3nc(-c4cccnc4N)n(-c4ccc5c(c4)CC[C@@H]5NC(=O)c4ccc(O)c(C=O)c4)c3n2)cn1 [Example 71, (S)—N-(5-(2-(2-aminopyridin-3-yl)-5-(5-methoxypyrazin-2-yl)-3H-imidazo[4,5-b]pyridin-3-yl)-2,3-dihydro-1H-inden-1-yl)-3-formyl-4-hydroxybenzamide]	100 to 2000 nM	10 to 100 nM	10 to 100 nM	10 to 100 nM
Cn1cc(-c2ccc3nc(-c4cccnc4N)n(-c4ccc5c(c4)CC[C@@H]5NC(=O)c4ccc(O)c(C=O)c4)c3n2)nn1 [Example 72, (S)—N-(5-(2-(2-aminopyridin-3-yl)-5-(1-methyl-1H-1,2,3-triazol-4-yl)-3H-imidazo[4,5-b]pyridin-3-yl)-2,3-dihydro-1H-inden-1-yl)-3-formyl-4-hydroxybenzamide]	100 to 2000 nM	10 to 100 nM	10 to 100 nM	100 to 2000 nM
Nc1ncccc1-c1nc2ccc(-c3cnccn3)nc2n1-c1ccc2c(c1)CC[C@@H]2NC(=O)c1cc(C=O)c2[nH]ncc2c1 [Example 73, (S)—N-(5-(2-(2-aminopyridin-3-yl)-5-(pyrazin-2-yl)-3H-imidazo[4,5-b]pyridin-3-yl)-2,3-dihydro-1H-inden-1-yl)-7-formyl-1H-indazole-5-carboxamide]	100 to 2000 nM	< 10 nM	10 to 100 nM	10 to 100 nM
Nc1ncccc1-c1nc2ccc(-c3ccccc3)nc2n1-c1ccc2c(c1)C(=O)C[C@@H]2NC(=O)c1ccc(O)c(C=O)c1 [Example 74, N-[(1S)-5-[2-(2-aminopyridin-3-yl)-5-phenylimidazo[4,5-b]pyridin-3-yl]-3-oxo-1,2-dihydroinden-1-yl]-3-formyl-4-hydroxybenzamide]	100 to 2000 nM	10 to 100 nM	100 to 2000 nM	100 to 2000 nM
Nc1ncccc1-c1nc2ccc(-n3ccc(F)n3)nc2n1-c1ccc2c(c1)CC[C@@H]2NC(=O)c1ccc(O)c(C=O)c1 [Example 75, (S)—N-(5-(2-(2-aminopyridin-3-yl)-5-(3-fluoro-1H-pyrazol-1-yl)-3H-imidazo[4,5-b]pyridin-3-yl)-2,3-dihydro-1H-inden-1-yl)-3-formyl-4-hydroxybenzamide]	100 to 2000 nM	10 to 100 nM	10 to 100 nM	100 to 2000 nM
Nc1ncccc1-c1nc2ccc(-n3cc(F)cn3)nc2n1-c1ccc2c(c1)CC[C@@H]2NC(=O)c1ccc(O)c(C=O)c1 [Example 76, N-[(1S)-5-[2-(2-aminopyridin-3-yl)-5-(4-fluoropyrazol-1-yl)imidazo[4,5-b]pyridin-3-yl]-2,3-dihydro-1H-inden-1-yl]-3-formyl-4-hydroxybenzamide]	100 to 2000 nM	10 to 100 nM	100 to 2000 nM	100 to 2000 nM
Cc1cnn(-c2ccc3nc(-c4cccnc4N)n(-c4ccc5c(c4)CC[C@@H]5NC(=O)c4ccc(O)c(C=O)c4)c3n2)c1 [Example 77, (S)—N-(5-(2-(2-aminopyridin-3-yl)-5-(4-methyl-1H-pyrazol-1-yl)-3H imidazo[4,5-b]pyridin-3-yl)-2,3-dihydro-1H-inden-1-yl)-3-formyl-4-hydroxybenzamide]	100 to 2000 nM	10 to 100 nM	10 to 100 nM	100 to 2000 nM
Nc1ncccc1-c1nc2ccc(-n3cc(Cl)cn3)nc2n1-c1ccc2c(c1)CC[C@@H]2NC(=O)c1ccc(O)c(C=O)c1 [Example 78, N-[(1S)-5-[2-(2-aminopyridin-3-yl)-5-(4-chloropyrazol-1-yl)imidazo[4,5-b]pyridin-3-yl]-2,3-dihydro-1H-inden-1-yl]-3-formyl-4-hydroxybenzamide]	100 to 2000 nM	10 to 100 nM	100 to 2000 nM	100 to 2000 nM
N#Cc1ccc2nc(-c3cccnc3N)n(-c3ccc4c(c3)CC[C@@H]4NC(=O)c3ccc(O)c(C=O)c3)c2n1 [Example 79, (S)—N-(5-(2-(2-aminopyridin-3-yl)-5-cyano-3H-imidazo[4,5-b]pyridin-3-yl)-2,3-dihydro-1H-inden-1-yl)-3-formyl-4-hydroxybenzamide]	≥ 2000 nM	100 to 2000 nM	100 to 2000 nM	≥ 2000 nM
COc1cncc(-c2ccc3nc(-c4cccnc4N)n(-c4ccc5c(c4)CC[C@@H]5NC(=O)c4ccc(O)c(C=O)c4)c3n2)n1 [Example 80, N-[(1S)-5-[2-(2-aminopyridin-3-yl)-5-(6-methoxypyrazin-2-yl)imidazo[4,5-b]pyridin-3-yl]-2,3-dihydro-1H-inden-1-yl]-3-formyl-4-hydroxybenzamide]	100 to 2000 nM	10 to 100 nM	10 to 100 nM	100 to 2000 nM
Nc1ncccc1-c1nc2ccc(-n3cccn3)nc2n1-c1ccc2c(c1)CC[C@@H]2NC(=O)c1cc(F)c(O)c(C=O)c1 [Example 81, N-[(1S)-5-[2-(2-aminopyridin-3-yl)-5-(pyrazol-1-yl)imidazo[4,5-b]pyridin-3-yl]-2,3-dihydro-1H-inden-1-yl]-3-fluoro-5-formyl-4-hydroxybenzamide]	100 to 2000 nM	10 to 100 nM	10 to 100 nM	100 to 2000 nM
Nc1ncccc1-c1nc2ccc(-n3cccn3)nc2n1-c1ccc2c(c1)CC[C@@H]2NC(=O)c1cc(C=O)c(O)c(F)c1F [Example 82, (S)—N-(5-(2-(2-aminopyridin-3-yl)-5-(1H-pyrazol-1-yl)-3H-imidazo[4,5-b]pyridin-3-yl)-2,3-dihydro-1H-inden-1-yl)-2,3-difluoro-5-formyl-4-hydroxybenzamide]	10 to 100 nM	10 to 100 nM	10 to 100 nM	10 to 100 nM
COc1cnn(-c2ccc3nc(-c4cccnc4N)n(-c4ccc5c(c4)CC[C@@H]5NC(=O)c4ccc(O)c(C=O)c4)c3n2)c1 [Example 83, N-[(1S)-5-[2-(2-aminopyridin-3-yl)-5-(4-methoxypyrazol-1-yl)imidazo[4,5-b]pyridin-3-yl]-2,3-dihydro-1H-inden-1-yl]-3-formyl-4-hydroxybenzamide]	100 to 2000 nM	10 to 100 nM	10 to 100 nM	100 to 2000 nM
Nc1ncccc1-c1nc2ccc(-n3cc(C=O)cn3)nc2n1-c1ccc2c(c1)CC[C@@H]2NC(=O)c1ccc(O)c(C=O)c1 [Example 84, N-[(1S)-5-[2-(2-aminopyridin-3-yl)-5-(4-formylpyrazol-1-yl)imidazo[4,5-b]pyridin-3-yl]-2,3-dihydro-1H-inden-1-yl]-3-formyl-4-hydroxybenzamide]	100 to 2000 nM	10 to 100 nM	100 to 2000 nM	100 to 2000 nM
Nc1ncccc1-c1nc2ccc(-n3cccn3)nc2n1-c1ccc2c(c1)C(=O)C[C@@H]2NC(=O)c1ccc(O)c(C=O)c1 [Example 85, N-[(1S)-5-[2-(2-aminopyridin-3-yl)-5-(pyrazol-1-yl)imidazo[4,5-b]pyridin-3-yl]-3-oxo-1,2-dihydroinden-1-yl]-3-formyl-4-hydroxybenzamide]	100 to 2000 nM	100 to 2000 nM	100 to 2000 nM	≥ 2000 nM
CS(=O)(=O)Nc1ccc(C(=O)N[C@H]2CCc3cc(-n4c(-c5cccnc5N)nc5ccc(-n6cccn6)nc54)ccc32)cc1C=O [Example 86, N-[(1S)-5-[2-(2-aminopyridin-3-yl)-5-(pyrazol-1-yl)imidazo[4,5-b]pyridin-3-yl]-2,3-dihydro-1H-inden-1-yl]-3-formyl-4-methanesulfonamidobenzamide]	100 to 2000 nM	10 to 100 nM	10 to 100 nM	10 to 100 nM
